Values of other authors, collected in patent US20090005322A1, “Physiologically- Active Composition Based on Collagen” (priority 2004, published 2009).

System: human peripheral polymorphonuclear leucocytes

C[C@@H]1O[C@@H](O[C@@H]2[C@@H](O)[C@H](OCCc3ccc(O)c(O)c3)O[C@H](CO)[C@H]2OC(=O)/C=C/c2ccc(O)c(O)c2)[C@H](O)[C@H](O)[C@H]1O [Acteoside, acteoside]
formation of eicosatetraenoic acid derivatives (5-HET): inhibits
formation of leucotriene B4: inhibits
